Laboratory results published in patent publication US20060040980A1, “Ionophores as cancer chemotherapeutic agents” (priority 2004, published 2006).
“Also recorded” adds a separate entry of the source. Like-named read-outs stand apart in the source and are kept apart here.

Columns and labels:
tumor cells [1] = experiment: Modulation of CQ-mediated cell killing by anti-oxidants and zinc chelators; type: cell-based; settings: added to CQ-treated cells
Description: Inventors then studied the effects of the addition of zinc chelators. Since Ca^++ has a lower affinity for EDTA than Zn^++, the addition of […] it.

[2] = system: Raji cells (a human B-cell Burkitt lymphoma line); experiment: MTS cell viability assay, Raji; type: cell-based; settings: for IC50: Homo sapiens, Raji (B-cell), MTS assay, n = 3, read-out: IC50 (μM) towards human tumor cell lines; for Effect of added copper, zinc or iron on CQ's cytotoxic effects / Interaction of clioquinol and DHA in killing cells (isobologram analysis): Raji cells; for Effect of added copper, zinc or iron on CQ's cytotoxic effects: ZnCl2, CuCl2, FeCl2 premixed with 5 μM clioquinol, 72 h; for Interaction of clioquinol and DHA in killing cells (isobologram analysis): ratio of IC50s
Procedure: (§1) Cell viability was determined with the MTS assay. IC50 was calculated using nonlinear regression analysis (Prism 3.0). […] Data (n=3) are presented as means±S.E.M.
(§2) The CellTiter 96® Aqueous ONE Solution (Promega) was used to assess cellular viability via reduction of (3-(4,5-dimethylthiazol-2-yl)-5-(3carboxymethoxyphenyl)-2-(4-sulfophenyl)-2H-tetrazolium (MTS). An ELISA-based apoptosis assay kit was from Roche, and an anti-poly (ADP-ribose) polymerase (PARP) monoclonal antibody was from BIOMOL Research Laboratories Inc. Nude mice were from Animal Technology Limited. All other reagents were analytic grade.
(§3) DHL-4 cells were provided by Dr. Linda Boxer (Stanford University), A2780 cells by Dr. Stephen Howell (University of California, San Diego), SiHa cells by Dr. Doris Benbrook (University of Oklahoma). All other cells were obtained from the ATCC. Cells were routinely grown in a […], in an environment containing 5% CO2, and passed every three days. Cell viability was analyzed using the MTS assay. […] The MTS assay was performed using the protocol provided by the manufacturer. In short, 20 μL of MTS solution was added to each well, and cells were incubated at 37° C. for 1-2 h. The optical density (490 nm) of each well was then determined.
(§4) IC50 values were calculated with nonlinear regression analysis using Graphpad Prism 3.0 (Graphpad Software, Inc.).
(§5) The cells studied included human B-cell lymphoma lines (DHL-4, Raji), breast (MCF-7, MDA-MB231), ovarian (A2780), cervical (SiHa), bladder (T24), and pancreatic (Mpanc-96) cancer cells.
as §1
Inventors reasoned that the cytotoxic effects of a chelator would be overcome by an excess of the chelated metal. Inventors added increasing concentrations of copper, zinc or iron to cells treated with CQ. […] Cell viability was expressed as a percentage of untreated cells.

DHL-4 (B-cell) = experiment: MTS cell viability assay, DHL-4; type: cell-based; settings: Homo sapiens, read-out: IC50 (μM) of clioquinol towards human tumor cell lines, 72 h, n = 3
Description: as §2, §3, §4, §5

A2780 (ovarian) = experiment: MTS cell viability assay, A2780; type: cell-based, human
Description: as §2, §3, §4, §5

MDA-MB-231 (breast) = experiment: MTS cell viability assay, MDA-MB-231; type: cell-based; settings: Homo sapiens, read-out: IC50 (μM) of clioquinol towards human tumor cell lines, 72 h, n = 3
Description: as §2, §3, §4, §5

T24 (Bladder) = experiment: MTS cell viability assay, T24; type: cell-based; settings: Homo sapiens, read-out: IC50 (μM) of clioquinol towards human tumor cell lines, 72 h, n = 3
Description: as §2, §3, §4, §5

M-panc-96 (pancreas) = experiment: MTS cell viability assay, M-panc-96; type: cell-based; settings: Homo sapiens, MPANC96, read-out: IC50 (μM) of clioquinol towards human tumor cell lines, 72 h, n = 3
Description: as §2, §3, §4, §5

MCF-7 (breast) = experiment: MTS cell viability assay, MCF-7; type: cell-based; settings: Homo sapiens, MCF7, read-out: IC50 (μM) of clioquinol towards human tumor cell lines, 72 h, n = 3
Description: as §2, §3, §4, §5

SiHa (cervical) = experiment: MTS cell viability assay, SiHa; type: cell-based; settings: Homo sapiens, read-out: IC50 (μM) of clioquinol towards human tumor cell lines, 72 h, n = 3
Description: as §2, §3, §4, §5

human cancer cell lines = experiment: Viability of eight human cancer cell lines (overall statement); type: cell-based
Description: as §2, §3, §4, §5

tumor cells [3] = experiment: Lipid peroxidation (thiobarbituric acid reactive substances) in CQ-treated tumor cells; type: cell-based; settings: CQ treatment of tumor cells
A2780 cells = experiment: Cellular zinc level measurement with FluoZin-3; type: cell-based, human; settings: A2780, 30 μM clioquinol, 1 h, increasing zinc
Procedure: A sensitive water-soluble salt form of a fluorescent zinc indicator was used for cellular zinc level measurement following the manufacture's protocol (FluoZin-3, Molecular Probes). A2780 (10,000/well) and Raji cells (30,000/well) were plated in a 96-well plate.
FluoZinc-3 (final concentration of 3 μM) was added and the cells were incubated for another 30 min at 37° C. After the incubation, cells were washed twice with fresh medium to remove any dye nonspecifically associated with the cell surface. Additional medium was added and the cells were incubated for a further 30 min before fluorescence measurements were commenced. The fluorescence was measured at 485nm/535nm (excitation/emission), using a Wallac 1420 Multilabel Counter (Perkin Elmer).
The zinc ionophore pyrithione was used as a positive control.

Raji cells = experiment: Apoptosis ELISA (cytoplasmic histone-associated DNA fragments) and PARP/caspase-3 Western blot; type: cell-based, human; settings: 24 h, PARP cleavage
Procedure: Western blot analysis was performed as previously described (57-59). Briefly, cells were lysed in a lysis buffer containing 50 MM Tris, pH 7.4, 50 mM NaCl, 0.5% NP-40, 50 mM NaF, 1 mM Na3VO4, 1 mM phenylmethylsulfonyl fluoride, 25 μg/ml leupeptin, and 25 μg/ml aprotinin. The lysates were centrifuged at 15,004×g for 15 min and the supernatants were collected for protein concentration determination, SDS-PAGE, and western blot analysis with specific antibodies, as described.
An ELISA-based kit (Roche Diagnostics Coup., Ind.) was used to quantitatively measure cytoplasmic histone-associated DNA fragments (mononucleosomes and oligonucleosomes), a measure of apoptosis, according to the manufacturer's instructions.
Cellular extracts were analyzed using an ELISA-based assay (Roche Diagnostics Corp., Indianapolis, Ind.) that quantifies release into the cytoplasm of histone-associated DNA fragments (mononucleosomes and oligonucleosomes), a measure of apoptosis. In addition, the lysates were subjected to SDS-PAGE followed by Western blotting using an anti-poly (ADP-ribose) polymerase (PARP) monoclonal antibody (clone C-2-10) to detect PARP cleavage, a sign of caspase-dependent apoptosis.
Cell lysates were prepared and apoptosis determined using an ELISA that quantified cytoplasmic DNA-histone complexes. […]

[4] = system: A2780 (a human ovarian cancer line) xenograft; experiment: A2780 xenograft in nude mice; type: in vivo; settings: 28 mg/kg, 5 days a week
Procedure: Control animals were given Intralipid, without Cloquinol. […] Animals' weights were also measured 3 times a week.
In a separate experiment, nude mice were injected with the ovarian cancer cell line, A2780 and treated similarly. Mice were killed when the tumor reached 10% of their body weight.
Tumor size was calculated and expressed as […] .

[5] = system: immortalized endothelial cell line (EAhy.926); experiment: Endothelial cell tube formation assay on Matrigel; type: cell-based; settings: EAhy.926 on Matrigel
Procedure: An immortalized endothelial cell line (EAhy.926) was plated on Matrigel at a density of 15,000 per well in the absence or presence of the drugs indicated overnight at 37° C. Branch formation was used as a measure of tube formation. Each value was determined by averaging the number of branches per field (250×) in 3 representative fields. The final bFGF concentration was 5 ng/mL.

[6] = system: Raji (a human B-cell lymphoma line) xenograft
Procedure: Xenograft model Nude mice (Harlan Sprague-Dawley, Indianapolis, Ind.) were maintained in accordance with the Institutional Animal Care and Use Committee (IACUC) procedures and guidelines. 10×10^6 Raji (a human B-cell lymphoma line), or 5×10^6 A2780 (a human ovarian cancer line) cells were suspended in 100 μL of phosphate buffered saline, mixed with 50% Matrigel, and implanted subcutaneously into the flanks of 5-week-old female nude mice. […] The tumor volume was assessed three times a week using calipers to measure the perpendicular diameters of the tumor, and calculated with the formula; v=l×(w)^2 (0.5), where v=tumor volume, l=length of tumor and w=width of donor (60). Animals' weights were also measured 3 times a week.
Nude mice were injected subcutaneously with Raji cells.

[7] = cited from earlier work
albumin = albumin (Homo sapiens, UniProt P02768); settings: read-out: Affinity of binding to albumin; cited from earlier work
[8] = system: mouse model of Alzheimer's disease; settings: cited from earlier work
[9] = system: patients with Alzheimer's disease; settings: cited from earlier work
mouse brains = settings: cited from earlier work
animals = settings: high doses; cited from earlier work
[10] = target: purified bovine erythrocyte SOD 1 (Bos taurus, UniProt P00442); experiment: SOD1 activity, xanthine oxidase/cytochrome C method, purified enzyme; settings: purified bovine erythrocyte SOD 1, in vitro
[11] = oral, 750 mg a day, Alzheimer's trial

purified bovine erythrocyte SOD 1, sequence (P00442 whole entry): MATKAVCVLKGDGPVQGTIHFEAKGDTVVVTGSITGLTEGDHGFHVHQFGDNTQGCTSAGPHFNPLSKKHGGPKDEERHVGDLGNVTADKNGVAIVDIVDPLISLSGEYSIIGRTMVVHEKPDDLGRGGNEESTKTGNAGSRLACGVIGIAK
albumin, sequence (P02768 25-609): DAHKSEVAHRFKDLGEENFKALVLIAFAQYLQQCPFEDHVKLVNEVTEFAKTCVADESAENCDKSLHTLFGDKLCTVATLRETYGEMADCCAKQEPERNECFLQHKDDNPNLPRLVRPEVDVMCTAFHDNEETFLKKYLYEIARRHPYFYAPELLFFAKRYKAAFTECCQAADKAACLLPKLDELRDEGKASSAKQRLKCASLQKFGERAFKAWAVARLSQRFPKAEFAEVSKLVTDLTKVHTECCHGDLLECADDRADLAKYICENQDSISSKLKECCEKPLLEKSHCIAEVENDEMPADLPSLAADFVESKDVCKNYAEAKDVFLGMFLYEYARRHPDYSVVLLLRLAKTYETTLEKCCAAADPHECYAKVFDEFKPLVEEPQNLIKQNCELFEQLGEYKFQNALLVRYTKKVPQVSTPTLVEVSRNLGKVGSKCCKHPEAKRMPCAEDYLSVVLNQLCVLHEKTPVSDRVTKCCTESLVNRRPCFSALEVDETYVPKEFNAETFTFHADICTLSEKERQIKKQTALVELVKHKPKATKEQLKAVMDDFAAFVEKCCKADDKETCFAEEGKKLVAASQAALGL

## O=C([O-])CN(CCN(CC(=O)[O-])CC(=O)[O-])CC(=O)[O-].[Ca+2].[Na+].[Na+] [CaEDTA]
Tumor cells [1]
  Effect of zinc chelators on CQ-mediated cell killing: decrease in CQ-mediated cell killing

## CC/C=C\C/C=C\C/C=C\C/C=C\C/C=C\C/C=C\CCC(=O)O [DHA, docosahexaenoic acid]
[2]
  IC50: 85 µM

## Cc1c(C)c2c(c(C)c1O)CCC(C)(C(=O)O)O2 (stereo not drawn) [Trolox]
Tumor cells [1]
  Protection of cells against CQ by anti-oxidants: do not protect

## O=C(O)CN(CCN(CC(=O)O)CC(=O)O)CC(=O)O.[Zn] [ZnEDTA]
Tumor cells [1]
  Effect of zinc chelators on CQ-mediated cell killing: not

## Oc1c(I)cc(Cl)c2cccnc12 [clioquinol, 5-chloro-7-iodo-8-hydroxyquinoline]
DHL-4 (B-cell)
  IC50: 6.7 µM
[2]
  IC50: 12.4 µM
  Effect of added copper, zinc or iron on CQ's cytotoxic effects: potentiation
  Interaction of clioquinol and DHA in killing cells (isobologram analysis): potentiate DHA; also recorded: synergy
[2]; listed as CQ
  Effect of added copper, zinc or iron on CQ's cytotoxic effects: potentiated
  Interaction of clioquinol and DHA in killing cells (isobologram analysis): synergism
A2780 (ovarian); A2780 cells, time-course studies
  Exposure time sufficient for full cytotoxicity: 8 h
A2780 (ovarian); Homo sapiens, read-out: IC50 (μM) of clioquinol towards human tumor cell lines, A2780 (ovarian), 72 h, n = 3
  IC50: 14.2 µM
MDA-MB-231 (breast)
  IC50: 19.9 µM
T24 (Bladder)
  IC50: 20 µM
M-panc-96 (pancreas)
  IC50: 23.6 µM
MCF-7 (breast)
  IC50: 29.7 µM
SiHa (cervical)
  IC50: 38.8 µM
Human cancer cell lines; eight human cancer cell lines, 72 h, read-out: IC50s, range over all cell lines tested
  IC50: 10 to 40 µM
Human cancer cell lines; human cancer cells
  IC50s in killing human cancer cells (in words): low micromolar range
Tumor cells [3]
  Lipid peroxidation (thiobarbituric acid reactive substances): does not lead to increased lipid peroxidation
A2780 cells
  Zinc ionophore activity (fluorescent zinc indicator): is a zinc ionophore
A2780 cells; listed as CQ
  Zinc ionophore activity (fluorescent zinc indicator): is indeed an ionophore
Raji cells
  Induction of apoptosis: induces apoptosis
[4]
  Survival of treated mice: prolonged survival
  Tumor growth: inhibited tumor growth
[5]
  Anti-angiogenic effect (cell survival and tube branches): anti-angiogenic effect
[5]; bFGF 5 ng/mL, overnight
  Endothelial cell tube formation: inhibited in a dose dependent manner
[6]; Raji xenograft, 28 mg/kg ip, 5 days a week
  Tumor growth: inhibition of tumor growth
[6]; mouse, in vivo, ip, 28 mg/kg
  Signs of toxicity: No animals exhibited signs of toxicity
[7]; man, in 12 hours
  Absorbed from the skin: 40%
[7]; man, in 72 hours
  Excreted in the urine after absorption from the GI tract: 25%
[7]; man
  Serum half-life: about 12 hours
[7]; [11]
  Trough blood levels: about 25 μM
  Trough, steady-state blood levels: 7.6 µg/mL
[7]; oral, 750 mg a day, Alzheimer's trial, listed as CQ
  Trough blood levels: 25 µM
albumin
  Kd: 0.01 µM
[8]; mice
  Dose administered safely: 30 mg/kg/day
[8]; mouse model of Alzheimer's disease
  Sedimentable amyloid in the brains: decrease
[9]; Australia, 36 patients, 250, 500, 750 mg a day over nine months with vitamin B12
  Neurotoxicity in patients: No neurotoxicity
[9]; Sweden, 10 or 80 mg a day for 21 days
  Toxicity in patients: without experiencing toxicity
Mouse brains
  Accumulation of vitamin B12 in the brain: decreased
animals
  Neurotoxicity in animal studies: can induce neurotoxicity
[10]
  Effect on purified SOD 1: inhibition

## [O-][n+]1ccccc1S [pyrithione, 2-mercaptopyridine 1-oxide]
[5]
  Anti-angiogenic effect (cell survival and tube branches): anti-angiogenic effect

## vitamin E
Tumor cells [1]
  Protection of cells against CQ by anti-oxidants: do not protect
